Results taken from ChEMBL document CHEMBL1201862, “PubChem BioAssay data set” (2004).
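Assay format: 96-well plates, 48-hour exposure. GI50 = concentration required for 50% inhibition of growth.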 Activity calls are given as the source filed them. No stated cut-off is given here; in the data, active = GI50 up to about 1.1 µM and inactive = higher.

Columns and labels:
Assay in all cases: DTP human tumour cell line panel, 48 h
[1] = tested on: 786-0
[2] = tested on: A549
[3] = tested on: ACHN
[4] = tested on: CCRF-CEM
[5] = tested on: COLO 205
[6] = tested on: DU-145
[7] = tested on: EKVX
[8] = tested on: HCC 2998
[9] = tested on: HCT-116
[10] = tested on: HCT-15
[11] = tested on: HL-60
[12] = tested on: HT-29
[13] = tested on: Hs-578T
[14] = tested on: IGROV-1
[15] = tested on: K562
[16] = tested on: KM12
[17] = tested on: LOX IMVI
[18] = tested on: M14
[19] = tested on: MCF7
[20] = tested on: MDA-MB-231
[21] = tested on: MDA-MB-435
[22] = tested on: MDA-N
[23] = tested on: MOLT-4
[24] = tested on: Malme-3M
[25] = tested on: NCI-H226
[26] = tested on: NCI-H23
[27] = tested on: NCI-H460
[28] = tested on: NCI-H522
[29] = tested on: NCI/ADR-RES
[30] = tested on: OVCAR-3
[31] = tested on: OVCAR-4
[32] = tested on: OVCAR-5
[33] = tested on: OVCAR-8
[34] = tested on: PC-3
[35] = tested on: RPMI-8226
[36] = tested on: RXF 393
[37] = tested on: SF-268
[38] = tested on: SF-295
[39] = tested on: SF-539
[40] = tested on: SK-MEL-28
[41] = tested on: SK-MEL-5
[42] = tested on: SK-OV-3
[43] = tested on: SN12C
[44] = tested on: SNB-19
[45] = tested on: SNB-75
[46] = tested on: SR
[47] = tested on: T47D
[48] = tested on: TK-10
[49] = tested on: U-251
[50] = tested on: UACC-257
[51] = tested on: UACC-62
[52] = tested on: UO-31
[53] = tested on: A498
[54] = tested on: CAKI-1
[55] = tested on: HOP-62
[56] = tested on: SK-MEL-2
[57] = tested on: SW-620

## C=C(C)[C@]12CC(C)C34OC(/C=C\C=C\CCCCCCCCC)(O[C@@H]1[C@@H]3[C@@H]1O[C@]1(CO)[C@@H](O)[C@]1(O)C(=O)C(C)=C[C@@H]41)O2 (some centres undefined)
[1]
  GI50: 6.35 µM (inactive)
[2]
  GI50: < 0.012 µM (active)
[3]
  GI50: 5.61 µM (inactive)
[4]
  GI50: 2.52 µM (inactive)
[5]
  GI50: 0.0001 µM (active)
[6]
  GI50: 8.38 µM (inactive)
[7]
  GI50: 13.4 µM (inactive)
[8]
  GI50: 0.01 µM (active)
[9]
  GI50: 7.48 µM (inactive)
[10]
  GI50: 12.4 µM
[11]
  GI50: 0.0103 µM (active)
[12]
  GI50: 2.21 µM (inactive)
[13]
  GI50: 0.01 µM (active)
[14]
  GI50: 14.8 µM (inactive)
[15]
  GI50: 0.0103 µM (active)
[16]
  GI50: 6.97 µM (inactive)
[17]
  GI50: 26 nM (active)
[18]
  GI50: 13.1 µM (inactive)
[19]
  GI50: 10.6 µM (inactive)
[20]
  GI50: 0.01 µM (active)
[21]
  GI50: 0.0223 µM (active)
[22]
  GI50: 0.01 µM (active)
[23]
  GI50: 2.14 µM (inactive)
[24]
  GI50: 0.535 µM (active)
[25]
  GI50: 18 µM (inactive)
[26]
  GI50: 14.4 µM (inactive)
[27]
  GI50: 0.01 µM (active)
[28]
  GI50: 14.7 µM (inactive)
[29]
  GI50: 18.5 µM (inactive)
[30]
  GI50: 6.41 µM (inactive)
[31]
  GI50: 9.93 µM (inactive)
[32]
  GI50: 17.1 µM (inactive)
[33]
  GI50: 16.3 µM (inactive)
[34]
  GI50: 2 µM (inactive)
[35]
  GI50: 11.9 µM (inactive)
[36]
  GI50: 14.8 µM (inactive)
[37]
  GI50: 12.8 µM (inactive)
[38]
  GI50: 0.01 µM (active)
[39]
  GI50: 0.01 µM (active)
[40]
  GI50: 12.1 µM (inactive)
[41]
  GI50: 11.7 µM (inactive)
[42]
  GI50: 20.3 µM (inactive)
[43]
  GI50: 2.42 µM (inactive)
[44]
  GI50: 16.6 µM (inactive)
[45]
  GI50: 5.07 µM (inactive)
[46]
  GI50: 2.16 µM (inactive)
[47]
  GI50: 11.9 µM (inactive)
[48]
  GI50: 0.000288 µM (active)
[49]
  GI50: 15.5 µM (inactive)
[50]
  GI50: 14.7 µM (inactive)
[51]
  GI50: 10 µM (inactive)
[52]
  GI50: 11.2 µM (inactive)

## COc1ccc(-c2coc3cc(O)ccc3c2=O)cc1 [FORMONONETIN]
[1]
  GI50: > 100 µM (inactive)
[53]
  GI50: > 100 µM (inactive)
[2]
  GI50: > 100 µM (inactive)
[3]
  GI50: > 100 µM (inactive)
[54]
  GI50: > 100 µM (inactive)
[4]
  GI50: > 100 µM (inactive)
[5]
  GI50: > 100 µM (inactive)
[6]
  GI50: > 100 µM (inactive)
[8]
  GI50: > 100 µM (inactive)
[9]
  GI50: > 100 µM (inactive)
[10]
  GI50: > 100 µM
[11]
  GI50: > 100 µM (inactive)
[55]
  GI50: > 100 µM (inactive)
[12]
  GI50: > 100 µM (inactive)
[13]
  GI50: > 100 µM (inactive)
[14]
  GI50: > 100 µM (inactive)
[15]
  GI50: > 100 µM (inactive)
[16]
  GI50: > 100 µM (inactive)
[18]
  GI50: > 100 µM (inactive)
[19]
  GI50: > 100 µM (inactive)
[20]
  GI50: 11.3 µM (inactive)
[21]
  GI50: > 100 µM (inactive)
[22]
  GI50: > 100 µM (inactive)
[23]
  GI50: > 100 µM (inactive)
[24]
  GI50: > 100 µM (inactive)
[25]
  GI50: > 100 µM (inactive)
[26]
  GI50: > 100 µM (inactive)
[27]
  GI50: > 100 µM (inactive)
[28]
  GI50: > 100 µM (inactive)
[29]
  GI50: > 100 µM (inactive)
[30]
  GI50: > 100 µM (inactive)
[32]
  GI50: > 100 µM (inactive)
[33]
  GI50: > 100 µM (inactive)
[34]
  GI50: > 100 µM (inactive)
[37]
  GI50: > 100 µM (inactive)
[38]
  GI50: > 100 µM (inactive)
[39]
  GI50: > 100 µM (inactive)
[40]
  GI50: > 100 µM (inactive)
[56]
  GI50: > 100 µM (inactive)
[41]
  GI50: > 100 µM (inactive)
[42]
  GI50: > 100 µM (inactive)
[43]
  GI50: > 100 µM (inactive)
[44]
  GI50: > 100 µM (inactive)
[45]
  GI50: > 100 µM (inactive)
[46]
  GI50: > 100 µM (inactive)
[57]
  GI50: > 100 µM (inactive)
[47]
  GI50: > 100 µM (inactive)
[48]
  GI50: > 100 µM (inactive)
[49]
  GI50: > 100 µM (inactive)
[50]
  GI50: > 100 µM (inactive)
[51]
  GI50: > 100 µM (inactive)
[52]
  GI50: 90.6 µM (inactive)
